Columns and labels:
α-glucosidase [1] = target: T1, α-glucosidase (Saccharomyces cerevisiae, UniProt P53341); assay: Fluorescence quenching experiment; type: binding, baker's yeast; conditions: increasing concentration of compound, 30 min, 37°C, excitation 290 nm
T1 construct: purchased Sigma-Aldrich G5003
Description: According to the previously reported method ([Aguilar-Moncayo et al., 2010]), all fluorescence spectra were measured on a fluorescence spectrophotometer (Agilent Cary Eclipse) equipped with a 10.0-mm quartz cell and a thermostat bath. In the fluorescence spectrophotometer, α-glucosidase (1 U/ml) was pretreated with certain concentrations of inhibitors for 30 min at 37°C. 100 μL of the above solution (pH 6.8) was added accurately to the quartz cell. The blank was used for buffer spectrum values. The fluorescence emission spectra were measured at 37°C. The excitation wavelength was 290 nm, and the emission spectrum was recorded from 320 to 500 nm.

α-glucosidase [2] = target: T1, α-glucosidase; assay: Kinetic assay, Lineweaver-Burk plot analysis; type: biochemical; conditions: for inhibition type: Lineweaver-Burk plot analysis; for Ki: Lineweaver-Burk plot, substrate pNPG, secondary plot of slopes, read-out: estimated Ki
Description: The inhibition type of the inhibitors against α-glucosidase activities was evaluated based on a described method ([Hou et al., 2009]). Increasing concentrations of substrates pNPG were used in the absence or presence of tested compounds at four different concentrations around the IC50 values. The inhibitory kinetics of the investigated compounds on α-glucosidase was analyzed using the Lineweaver–Burk plot of the substrate concentration and velocity.

[3] = Cell viability assay (MTT); type: cell-based; conditions: human, LO2 cells (normal hepatocyte cell line), 48 h treatment, read-out: IC50 toward LO2 cells (cytotoxicity)
Description: The LO2 cell line was cultured in a proper medium supplemented with 10% fetal bovine serum in a humidified atmosphere of 5% CO2 at 37°C. Cell suspensions were plated in 96-well plates at a density of 2 × 10^4 […]. Compounds were solubilized in DMSO at six different concentrations. After incubation for 24 h, the cells were treated with various concentrations of tested substances for 48 h and then incubated with 100 μL of MTT at 37°C for 2 h. The formazan dye product was measured by the absorbance at 490 nm on a Tecan Spark multimode microplate reader (Switzerland).

[4] = target: T2, α-Glucosidase (Sigma, G5003) derived from baker's yeast (Saccharomyces cerevisiae, UniProt P53341); assay: biochemical; type: biochemical; conditions: for inhibition ratio against α-glycosidase: at 100 μM; for IC50: mean ± SD of three independent experiments, six concentrations, 37°C, pH 6.8, read-out: IC50 against α-glycosidase
T2 construct: purchased Sigma-Aldrich G5003
Description: The α-glucosidase inhibitory evaluation of the purchased 52 compounds was performed according to the previously described protocol ([Tang et al., 2014]; [Ye et al., 2019]). α-Glucosidase (Sigma, G5003) derived from baker’s yeast, and pNPG (Sigma, N1377) and the substrate were both purchased from Sigma-Aldrich. […] The compounds and α-glucosidase were preincubated in phosphate buffer (37°C, 15 min). Then, 25 μL substrate buffer was added to the system to start the reaction, and the incubation was continued at 37°C for 15 min. Finally, the reaction was terminated by the addition of 50 μL 0.2 M reaction termination solution. The optical density (OD) was measured at an absorbance wavelength of 405 nm using a microplate reader (Tecan, Switzerland). The IC50 values were estimated with six different concentrations, and each sample was measured three times in parallel experiments.

T2 sequence (P53341 whole entry): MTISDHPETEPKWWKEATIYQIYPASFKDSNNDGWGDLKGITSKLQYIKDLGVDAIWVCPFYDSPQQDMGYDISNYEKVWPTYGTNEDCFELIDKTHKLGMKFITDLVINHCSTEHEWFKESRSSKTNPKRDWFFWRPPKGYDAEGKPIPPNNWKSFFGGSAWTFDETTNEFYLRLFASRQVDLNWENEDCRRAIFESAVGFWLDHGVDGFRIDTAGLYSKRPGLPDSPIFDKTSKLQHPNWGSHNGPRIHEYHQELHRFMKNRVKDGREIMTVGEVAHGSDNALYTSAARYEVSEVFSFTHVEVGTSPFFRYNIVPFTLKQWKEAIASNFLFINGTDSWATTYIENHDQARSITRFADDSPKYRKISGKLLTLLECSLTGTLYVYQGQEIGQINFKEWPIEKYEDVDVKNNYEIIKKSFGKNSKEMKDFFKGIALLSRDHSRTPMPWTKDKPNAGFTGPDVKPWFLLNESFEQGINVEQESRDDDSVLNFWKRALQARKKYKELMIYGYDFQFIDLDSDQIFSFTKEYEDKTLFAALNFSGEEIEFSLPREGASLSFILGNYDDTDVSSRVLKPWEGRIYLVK
T1 sequence (P53341 whole entry): as above

Row | Structure (SMILES) | fluorescence quenching of α-glycosidase (α-glucosidase [1]) | inhibition type (α-glucosidase [2]) | Ki (α-glucosidase [2]) [µM] | IC50 at 48 h [3] [µM] | inhibition ratio against α-glycosidase [4] | IC50 [4] [µM]
1 | COc1ccc(-c2c(C#N)c(SCc3nc4ccccc4[nH]3)nc(C)c2C(C)=O)cc1 [compound 44] | gradually quenched in a type of concentration-dependent manner | noncompetitive | 15.4 | > 100 | above 50% | 9.99 ± 0.43
2 | O=C(Nc1ccccc1C(=O)NCc1ccco1)c1ccc(F)cc1 [compound 37] | gradually quenched in a type of concentration-dependent manner | noncompetitive | 11.3 | > 100 | above 50% | 31.3 ± 3.11
3 | Cc1cccc(-c2cc3ncn(CC(=O)NC(=O)Nc4ccccc4)c(=O)c3s2)c1 [compound 7] | gradually quenched in a type of concentration-dependent manner | noncompetitive | 24.2 | > 100 | above 50% | 17.4 ± 1.32
4 | CSc1nc(N)nc(SCC(=O)c2ccc3c(c2)OCO3)c1C#N [compound 22] | gradually quenched in a type of concentration-dependent manner | noncompetitive | 11.3 | > 100 | above 50% | 35.2 ± 2.14

From publication PMC7982526, “Discovery of New α-Glucosidase Inhibitors: Structure-Based Virtual Screening and Biological Evaluation” (Frontiers in Chemistry, 2021)
